Data taken from patent US8415342B2, “Besifloxacin ophthalmic composition for the treatment or control of infection” (Bausch & Lomb Incorporated, priority 2008, dated 2013).
≈ marks a conversion by molar mass, not a printed value. Like-named read-outs stand apart in the source and are kept apart here.

What was measured:
Format in all cases: cell-based
[1] = system: Staphylococcus epidermidis; test: MIC, CLSI broth microdilution, clinical isolates; conditions: for MIC50: Staphylococcus epidermidis
[2] = system: Lancefield group C, F, G streptococci; test: MIC, CLSI broth microdilution, clinical isolates; conditions: G streptococci (N = 50)
Streptococcus pneumoniae = test: MIC, CLSI broth microdilution, clinical isolates
Viridans streptococci = test: MIC, CLSI broth microdilution, clinical isolates; conditions: Viridans streptococci (N = 156)
[3] = system: Staphylococcus lugdunensis; test: MIC, CLSI broth microdilution, clinical isolates; conditions: Staphylococcus lugdunensis (N = 15)
Staphylococcus aureus = test: MIC, CLSI broth microdilution, clinical isolates; conditions: for MIC50 / MIC90: Staphylococcus aureus
S. epidermidis = test: MIC of clinical trial isolates, Studies 373, 433, 434; conditions: Staphylococcus epidermidis, read-out: MIC90
[4] = system: Staphylococcus haemolyticus; test: MIC, CLSI broth microdilution, clinical isolates; conditions: Staphylococcus haemolyticus (N = 101)
S. aureus [5] = test: MIC of clinical trial isolates, Studies 373, 433, 434; conditions: Staphylococcus aureus
Legionella pneumophila = test: microbe, parasite or virus in culture
Staphylococcus warneri = test: MIC, CLSI broth microdilution, clinical isolates; conditions: Staphylococcus warneri (N = 50)
Streptococcus pyogenes = test: MIC, CLSI broth microdilution, clinical isolates; conditions: Streptococcus pyogenes (N = 101)
Klebsiella oxytoca = test: MIC, CLSI broth microdilution, clinical isolates; conditions: Klebsiella oxytoca (N = 50)
Citrobacter koseri = test: MIC, CLSI broth microdilution, clinical isolates; conditions: Citrobacter koseri (N = 100)
Streptococcus agalactiae = test: MIC, CLSI broth microdilution, clinical isolates; conditions: Streptococcus agalactiae (N = 100)
Staphylococcus hominis = test: MIC, CLSI broth microdilution, clinical isolates; conditions: Staphylococcus hominis (N = 50)
[6] = system: Staphylococcus saprophyticus; test: MIC, CLSI broth microdilution, clinical isolates; conditions: Staphylococcus saprophyticus (N = 101)
Moraxella catarrhalis = test: MIC, CLSI broth microdilution, clinical isolates; conditions: Moraxella catarrhalis (N = 101)
Morganella morganii = test: MIC, CLSI broth microdilution, clinical isolates; conditions: Morganella morganii (N = 51)
S. aureus [7] = test: MIC and MBC:MIC ratio, recent ocular isolates; conditions: S. aureus (N = 30), recent ocular isolates
Haemophilus influenzae = test: MIC, CLSI broth microdilution, clinical isolates; conditions: for MIC50 / MIC90: Haemophilus influenzae
[8] = Staphylococcus epidermidis (CNS, N = 6)
[9] = Staphylococcus epidermidis (CS, N = 9)
[10] = Staphylococcus epidermidis (MSSE, N = 6)
[11] = Staphylococcus epidermidis (all phenotypes, N = 15)
[12] = Streptococcus pneumoniae (PSSP, N = 31)
[13] = Staphylococcus aureus (CNS, N = 16)
[14] = Staphylococcus aureus (CS, N = 14)
[15] = Staphylococcus aureus (all phenotypes, N = 30)
[16] = MRSA, Staphylococcus aureus (MRSA, N = 11)
[17] = MSSA, Staphylococcus aureus (MSSA, N = 19)
[18] = Haemophilus influenzae (all phenotypes, N = 40)
[19] = Haemophilus influenzae (bla negative, N = 24)
[20] = Haemophilus influenzae (bla positive, N = 16)

For `CC[C@H]1OC(=O)[C@H](C)[C@@H](O[C@H]2C[C@@](C)(OC)[C@@H](O)[C@H](C)O2)[C@H](C)[C@@H](O[C@@H]2O[C@H](C)C[C@H](N(C)C)[C@H]2O)[C@](C)(O)C[C@@H](C)CN(C)[C@H](C)[C@@H](O)[C@]1(C)O` [Azithromycin], the “% S” value [1, 8] was 16.7%, the “% S” value [1, 9] was 33.3% and the “% S” value ([1]; Staphylococcus epidermidis (MRSE, N = 9)) was 0.0%. The “% S” value [1, 10] was 66.7%, the “% S” value [1, 11] was 26.7% and the MIC90 [1, 11] was over 8 µg/mL. It also gave an MIC50 ([1]; MRSE, Staphylococcus epidermidis (MRSE, N = 9)) of over 8 µg/mL, an MIC50 [1, 8] of over 8 µg/mL and an MIC50 [1, 9] of over 8 µg/mL. For the same molecule, the MIC50 [1, 10] was 0.5 µg/mL (≈ 0.668 µM), the MIC50 [1, 11] was over 8 µg/mL and the “% S” value [2] was 74.0%. For the same molecule, the MIC50 ([2]; read-out: MIC50) was 0.06 µg/mL (≈ 0.0801 µM), the MIC90 ([2]; read-out: MIC90) was over 8 µg/mL and the “% S” value (Streptococcus pneumoniae; Streptococcus pneumoniae (PISP, N = 2)) was 0.0%. The “% S” value (Streptococcus pneumoniae; Streptococcus pneumoniae (PRSP, N = 2)) was 50.0%, the “% S” value (Streptococcus pneumoniae; [12]) was 67.7% and the MIC50 (Streptococcus pneumoniae; [12]) was 0.06 µg/mL (≈ 0.0801 µM). The MIC90 (Streptococcus pneumoniae; [12]) was over 8 µg/mL, the “% S” value (Streptococcus pneumoniae; Streptococcus pneumoniae (all phenotypes, N = 35)) was 62.9% and the MIC50 (Streptococcus pneumoniae; Streptococcus pneumoniae (all phenotypes, N = 35), read-out: MIC50) was 0.06 µg/mL (≈ 0.0801 µM). The MIC90 (Streptococcus pneumoniae; Streptococcus pneumoniae (all phenotypes, N = 35), read-out: MIC90) was over 8 µg/mL, the “% S” value (Viridans streptococci) was 53.2% and the MIC50 (Viridans streptococci; read-out: MIC50) was 0.06 µg/mL (≈ 0.0801 µM). The MIC90 (Viridans streptococci; read-out: MIC90) was over 8 µg/mL, the “% S” value [3] was 46.7% and the MIC50 [3] was over 8 µg/mL. For the same molecule, the MIC90 [3] was over 8 µg/mL, the “% S” value (Staphylococcus aureus; [13]) was 43.8% and the “% S” value (Staphylococcus aureus; [14]) was 64.3%. The “% S” value (Staphylococcus aureus; Staphylococcus aureus (MRSA, N = 11)) was 9.1%, the “% S” value (Staphylococcus aureus; Staphylococcus aureus (MSSA, N = 19)) was 78.9% and the “% S” value (Staphylococcus aureus; [15]) was 53.3%. The MIC50 (Staphylococcus aureus; [16]) was over 8 µg/mL, the MIC90 (Staphylococcus aureus; [16]) was over 8 µg/mL and the MIC50 (Staphylococcus aureus; [17]) was 1 µg/mL (≈ 1.34 µM). The MIC90 (Staphylococcus aureus; [17]) was over 8 µg/mL, the MIC50 (Staphylococcus aureus; [13]) was over 8 µg/mL and the MIC90 (Staphylococcus aureus; [13]) was over 8 µg/mL. For the same molecule, the MIC50 (Staphylococcus aureus; [14]) was 1 µg/mL (≈ 1.34 µM), the MIC90 (Staphylococcus aureus; [14]) was over 8 µg/mL and the MIC50 (Staphylococcus aureus; [15]) was 1 µg/mL (≈ 1.34 µM). For the same molecule, the MIC90 (Staphylococcus aureus; [15]) was over 8 µg/mL, the MIC90 (S. epidermidis; MRSE, S. epidermidis MRSE-CR, N 24) was over 8 µg/mL and the MIC90 (S. epidermidis; MRSE, S. epidermidis MRSE-CS, N 27) was over 8 µg/mL. For the same molecule, the MIC90 (S. epidermidis; S. epidermidis MSSE-CR, N 10) was over 8 µg/mL, the MIC90 (S. epidermidis; S. epidermidis MSSE-CS, N 50) was over 8 µg/mL and the “% S” value [4] was 26.7%. It also gave an MIC50 [4] of over 8 µg/mL, an MIC90 [4] of over 8 µg/mL and an MIC90 (S. aureus [5]; MRSA, S. aureus MRSA-CR, N 17, read-out: MIC90) of over 8 µg/mL. For the same molecule, the MIC90 (S. aureus [5]; MRSA, S. aureus MRSA-CS, N 9, read-out: MIC90 (due to limited isolates, highest MIC value is given)) was over 8 µg/mL, the MIC90 (S. aureus [5]; MSSA, S. aureus MSSA-CR, N 17, read-out: MIC90) was over 8 µg/mL and the MIC90 (S. aureus [5]; MSSA, S. aureus MSSA-CS, N 144, read-out: MIC90) was over 8 µg/mL. For the same molecule, the MIC50 (Legionella pneumophila; Legionella pneumophila) was 0.12 µg/mL (≈ 0.16 µM), the MIC90 (Legionella pneumophila; Legionella pneumophila) was 1 µg/mL (≈ 1.34 µM) and the “MIC Range” value (Legionella pneumophila; Legionella pneumophila (N = 50)) was 0.03 to 1 µg/mL. For the same molecule, the “% S” value (Staphylococcus warneri) was 34.0%, the MIC50 (Staphylococcus warneri) was over 8 µg/mL and the MIC90 (Staphylococcus warneri) was over 8 µg/mL. For the same molecule, the “% S” value (Streptococcus pyogenes) was 85.1%, the MIC50 (Streptococcus pyogenes; read-out: MIC50) was 0.06 µg/mL (≈ 0.0801 µM) and the MIC90 (Streptococcus pyogenes; read-out: MIC90) was 8 µg/mL (≈ 10.7 µM). For the same molecule, the MIC50 (Klebsiella oxytoca) was over 8 µg/mL, the MIC90 (Klebsiella oxytoca) was over 8 µg/mL and the MIC50 (Citrobacter koseri) was 8 µg/mL (≈ 10.7 µM). For the same molecule, the MIC90 (Citrobacter koseri) was over 8 µg/mL, the “% S” value (Streptococcus agalactiae) was 73.0% and the MIC50 (Streptococcus agalactiae; read-out: MIC50) was 0.06 µg/mL (≈ 0.0801 µM). For the same molecule, the MIC90 (Streptococcus agalactiae; read-out: MIC90) was over 8 µg/mL, the “% S” value (Staphylococcus hominis) was 16.0% and the MIC50 (Staphylococcus hominis) was over 8 µg/mL. For the same molecule, the MIC90 (Staphylococcus hominis) was over 8 µg/mL, the “% S” value [6] was 54.5% and the MIC50 [6] was 1 µg/mL (≈ 1.34 µM). The MIC90 [6] was over 8 µg/mL, the “% S” value (Moraxella catarrhalis) was 100.0% and the MIC50 (Moraxella catarrhalis) was 0.03 µg/mL (≈ 0.0401 µM). For the same molecule, the MIC90 (Moraxella catarrhalis) was 0.03 µg/mL (≈ 0.0401 µM), the “MIC Range” value (Moraxella catarrhalis) was 0.015 to 0.06 µg/mL and the MIC50 (Morganella morganii) was over 8 µg/mL. The MIC90 (Morganella morganii) was over 8 µg/mL, the “% S (susceptible isolates, CLSI)” value (S. aureus [7]) was 53.3% and the MIC50 (S. aureus [7]; Staphylococcus aureus) was 1 µg/mL. The MIC90 (S. aureus [7]; Staphylococcus aureus) was over 8 µg/mL, the “% S” value (Haemophilus influenzae; [18]) was 100.0% and the “MIC Range” value (Haemophilus influenzae; [18]) was “≦0.004-2 μg/mL”. The “% S” value (Haemophilus influenzae; [19]) was 100.0%, the “MIC Range” value (Haemophilus influenzae; [19]) was “≦0.004-2 μg/mL” and the “% S” value (Haemophilus influenzae; [20]) was 100.0%. For the same molecule, the “MIC Range” value (Haemophilus influenzae; [20]) was 0.06 to 1 µg/mL, the MIC50 (Haemophilus influenzae; [18]) was 0.5 µg/mL (≈ 0.668 µM) and the MIC90 (Haemophilus influenzae; [18]) was 1 µg/mL (≈ 1.34 µM). It also gave an MIC50 (Haemophilus influenzae; [19]) of 0.5 µg/mL (≈ 0.668 µM), an MIC90 (Haemophilus influenzae; [19]) of 2 µg/mL (≈ 2.67 µM) and an MIC50 (Haemophilus influenzae; [20]) of 0.5 µg/mL (≈ 0.668 µM). The MIC90 (Haemophilus influenzae; [20]) was 1 µg/mL (≈ 1.34 µM).
